In publication PMC9841533, “Microtubule-Stabilizing 1,2,4-Triazolo[1,5-a]pyrimidines as Candidate Therapeutics for Neurodegenerative Disease: Matched Molecular Pair Analyses and Computational Studies Reveal New Structure–Activity Insights” (Journal of Medicinal Chemistry, 2022):
Structures can show the parent of a compound that is named as a salt. Where two headings read alike, the source gives them in different places.

How the values were obtained:
[1] = system: total α-tubulin (α-Tub) levels in QBI293 cells; experiment: QBI293 cell assay: total α-tubulin ELISA; assay type: cell-based
Method: (§1) All test compounds were initially screened in the same cell-based (QBI293) assay of MT stabilization used in our previous SAR studies[11],[12] so as to allow direct comparison with literature data. Changes in levels of acetylated α-tubulin (AcTub) and total α-tubulin (α-Tub), relative to vehicle-treated negative control cells, were determined after 4 h of incubation with test compounds at 1 and 10 μM. To account for possible day-to-day differences in the responsiveness of cells to MT-stabilizing treatment, compound-dependent changes in AcTub levels relative to DMSO-treated cells were also normalized to the corresponding changes caused by 100 nM of 5 that was used as a positive control. In addition, docking studies, binding free energy calculations, and in selected cases, molecular dynamic simulations were conducted using an X-ray structure of the vinca and seventh sites (PDB: 5NJH,[10]7CLD[13]). […] For selected compounds, additional studies included testing in the QBI293 cell AcTub assay at additional compound concentrations, and/or evaluation of test compounds for their ability to prevent MT collapse in primary neuron cultures treated with the phosphatase inhibitor, okadaic […] (OA). Finally, cytotoxicity studies in QBI293 and HeLa cells were also conducted for representative examples (Supporting Information).
(§2) Compound-induced changes in acetylated-tubulin and α-tubulin in QBI293 cells or primary mouse or rat neurons were as previously described.[11],[12] […] The plated cells were incubated overnight, after which the medium was aspirated and fresh medium containing vehicle (0.25–0.3% DMSO) or test compound was added. Test compounds were prepared as 4–20 mM stock solutions in 100% DMSO, and these were diluted in culture medium prior to addition to the QBI293 cells. After 4 h incubation, whole-cell extracts were prepared from the QBI293 cells as described[11] and the supernatant fraction from each sample was assessed for protein content by bicinchoninic acid (BCA) assay. The amount of acetyl-tubulin (AcTub) and α-tubulin (αTub) within the cell extract samples was quantified using specific enzyme-linked immunosorbent assays (ELISA), as previously described.[11] Acetyl-tubulin levels were determined in a similar manner in rat or mouse cortical neuron cultures in which embryonic dissociated cortical neurons were plated at 3 × 10^5 cells/well in poly-D-lysine-coated 12-well plates, essentially as previously described.[11] […] Culture homogenates were prepared for the determination of AcTub levels by ELISA as previously described.[11]

[2] = system: acetylated α-tubulin (AcTub) levels in QBI293 cells; experiment: QBI293 cell assay of MT stabilization: acetylated α-tubulin ELISA; assay type: cell-based
Method: as §1, §2

[3] = 4 h, 1 uM compound, read-out: AlfaTub (1uM)
[4] = 4 h, 10 uM compound, read-out: AlfaTub (10 uM)
[5] = 4 h incubation, 1 μM, read-out: α-Tub 1 μM, fold-change compared to vehicle (DMSO)-treated cells
[6] = 4 h incubation, 10 μM, read-out: α-Tub 10 μM, fold-change compared to vehicle (DMSO)-treated cells
[7] = 4 h, 1 uM compound, read-out: AcTub (1uM)
[8] = 4 h, 10 uM compound, read-out: AcTub (10 uM)
[9] = 4 h incubation, 1 μM, read-out: AcTub 1 μM, fold-change compared to vehicle (DMSO)-treated cells
[10] = 4 h incubation, 10 μM, read-out: AcTub 10 μM, fold-change compared to vehicle (DMSO)-treated cells

SMILES	total α-Tub at higher (30 μM) concentration ([1]; 4 h)	cellular AcTub at higher (30 μM) concentration ([2]; 4 h, 30 μM)	fold induction at 1 µM [1, 3]	fold induction at 10 µM [1, 4]	fold induction at 1 µM [1, 5]	fold induction at 10 µM [1, 6]	AcTub (1 uM - normalized) ([2]; 1 uM compound)	AcTub (10 uM - normalized) ([2]; 10 uM compound)	fold induction at 1 µM [2, 7]	fold induction at 10 µM [2, 8]	AcTub 1 μM, fold-change compared to positive control compound 5 (100 nM) (in parentheses) ([2]; 4 h incubation, 1 μM)	fold induction at 1 µM [2, 9]	AcTub 10 μM, fold-change compared to positive control compound 5 (100 nM) (in parentheses) ([2]; 4 h incubation, 10 μM)	fold induction at 10 µM [2, 10]
C[C@@H](Nc1c(-c2c(F)cc(OCCCN(C)C)cc2F)c(Cl)nc2ncnn12)C(C)(C)C [Compound 24, (R)-3-(4-(5-Chloro-7-((3,3-dimethylbutan-2-yl)amino)-[1,2,4]triazolo[1,5-a]pyrimidin-6-yl)-3,5-difluorophenoxy)-N,N-dimethylpropan-1-aminium Formate]	without a reduction of total α-Tub	further concentration-dependent decrease in cellular AcTub	–	–	–	–	–	–	–	–	–	–	–	–
CN(C)CCCOc1cc(F)c(-c2c(Cl)nc3ncnn3c2NCC(C)(C)C)c(F)c1 [Compound 26, 5-Chloro-6-(4-(3-(dimethylamino)propoxy)-2,6-difluorophenyl)-N-neopentyl-[1,2,4]triazolo[1,5-a]pyrimidin-7-amine]	–	–	0.67	0.73	0.69 ± 0.03	0.73 ± 0.07	1.12	0.1	5.98	0.52	1.12 fold-change	5.98 ± 0.11	0.10 fold-change	0.52 ± 0.07
C[C@H](Nc1c(-c2c(F)cc(C#CCCCO)cc2F)c(Cl)nc2ncnn12)C(F)(F)F [Compound 43, (S)-5-(4-(5-Chloro-7-((1,1,1-trifluoropropan-2-yl)amino)-[1,2,4]triazolo[1,5-a]pyrimidin-6-yl)-3,5-difluorophenyl)pent-4-yn-1-ol]	reduction in total tubulin levels could be detected only at higher concentrations	–	0.93	0.87	0.93 ± 0.02	0.87 ± 0.03	2.29	1.93	17.1	14.4	2.29 fold-change	17.1 ± 0.5	1.93 fold-change	14.4 ± 0.6
C[C@H](Nc1c(-c2c(F)cc(F)cc2F)c(Cl)nc2ncnn12)C1CC1 [Compound 16, (S)-5-Chloro-N-(1-cyclopropylethyl)-6-(2,4,6-trifluorophenyl)-[1,2,4]triazolo[1,5-a]pyrimidin-7-amine]	–	–	0.95	0.97	0.95 ± 0.02	0.97 ± 0.02	0.10	0.15	0.96	1.56	0.10 fold-change	0.96 ± 0.06	0.15 fold-change	1.56 ± 0.06
CC1(CNc2c(-c3c(F)cc(F)cc3F)c(Cl)nc3ncnn23)CC1 [Compound 13, 5-Chloro-N-((1-methylcyclopropyl)methyl)-6-(2,4,6-trifluorophenyl)-[1,2,4]triazolo[1,5-a]pyrimidin-7-amine]	–	–	1.04	0.97	1.04 ± 0.07	0.97 ± 0.02	0.26	0.49	2.68	5.06	0.26 fold-change	2.68 ± 0.24	0.49 fold-change	5.06 ± 0.23
C[C@H](Nc1c(-c2c(F)cc(OCCCCCO)cc2F)c(Cl)nc2ncnn12)C(F)(F)F [Compound 20, (S)-5-(4-(5-Chloro-7-((1,1,1-trifluoropropan-2-yl)amino)-[1,2,4]triazolo[1,5-a]pyrimidin-6-yl)-3,5-difluorophenoxy)pentan-1-ol]	–	–	0.37	0.28	0.43 ± 0.07	0.36 ± 0.03	0.50	0.96	3.73	7.12	0.50 fold-change	3.73 ± 0.22	0.96 fold-change	7.12 ± 0.29
CNCC#Cc1cc(F)c(-c2c(Cl)nc3ncnn3c2N[C@H](C)C(C)C)c(F)c1 [Compound 51, (R)-5-Chloro-6-(2,6-difluoro-4-(3-(methylamino)prop-1-yn-1-yl)phenyl)-N-(3-methylbutan-2-yl)-[1,2,4]triazolo[1,5-a]pyrimidin-7-amine Hydrochloride]	–	–	0.96	0.96	0.96 ± 0.01	0.96 ± 0.03	0.27	0.79	1.98	5.92	0.27 fold-change	1.98 ± 0.09	0.79 fold-change	5.92 ± 0.14
C[C@H](Nc1c(-c2c(F)cc(C#CCCO)cc2F)c(Cl)nc2ncnn12)C(F)(F)F [Compound 42, (S)-4-(4-(5-Chloro-7-((1,1,1-trifluoropropan-2-yl)amino)-[1,2,4]triazolo[1,5-a]pyrimidin-6-yl)-3,5-difluorophenyl)but-3-yn-1-ol]	–	–	0.88	0.69	0.88 ± 0.01	0.69 ± 0.02	0.23	0.92	1.62	6.4	0.23 fold-change	1.62 ± 0.05	0.92 fold-change	6.4 ± 0.32
Fc1cc(F)c(-c2c(Cl)nc3ncnn3c2NCC2(C(F)(F)F)CC2)c(F)c1 [Compound 14, 5-Chloro-N-((1-(trifluoromethyl)cyclopropyl)methyl)-6-(2,4,6-trifluorophenyl)-[1,2,4]triazolo[1,5-a]pyrimidin-7-amine]	–	–	1	0.97	1 ± 0.04	0.97 ± 0.09	0.22	0.34	1.3	2	0.22 fold-change	1.3 ± 0.09	0.34 fold-change	2 ± 0.36
